Laboratory results taken from the supplement of paper PMC6045584.
± gives the standard deviation of the averaged measurements.

How the values were obtained:
[1] = compound: C[C@H](CN(C)C)Oc1nc(Nc2cc3cccc(Cl)c3cn2)cnc1C#N; assay: surviving fraction relative to DMSO-only wells; higher = less growth inhibition; conditions: exposure time: 5 days
Outline: (§1)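 Log-phase tumour cell lines, 250–500 cells per well in 384-well plates, received inhibitors at 0.5, 1, 5, 10, 50, 100, 500 and 1000 nM continuously for five days, starting 24 hours after seeding. Viability was quantified with CellTiter-Glo luminescence and normalised to the median of DMSO-only wells to give surviving fraction. Three screens were run per line, and a line stayed in only with replicate Pearson r >0.7 and median Z' >0.3.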

[2] = compound: COc1ccc(-c2cc3c(C)nc(N)nc3n([C@H]3CC[C@H](OCCO)CC3)c2=O)cn1; assay: as above; conditions: exposure time: 5 days
Outline: as §1

Row | Test System | surviving fraction ([1]; 0.5 nM) | surviving fraction ([1]; 1 nM) | surviving fraction ([1]; 5 nM) | surviving fraction ([1]; 10 nM) | surviving fraction ([1]; 50 nM) | surviving fraction ([1]; 100 nM) | surviving fraction ([1]; 500 nM) | surviving fraction ([1]; 1000 nM) | surviving fraction ([2]; 0.5 nM) | surviving fraction ([2]; 1 nM) | surviving fraction ([2]; 5 nM) | surviving fraction ([2]; 10 nM) | surviving fraction ([2]; 50 nM) | surviving fraction ([2]; 100 nM) | surviving fraction ([2]; 500 nM) | surviving fraction ([2]; 1000 nM)
1 | 22RV1 PROSTATE | 1.15 ± 0.15 | 1.02 ± 0.071 | 1.01 ± 0.074 | 1.06 ± 0.15 | 0.999 ± 0.046 | 0.887 ± 0.14 | 1.03 ± 0.037 | 0.838 ± 0.12 | 1.03 ± 0.041 | 0.999 ± 0.072 | 0.876 ± 0.085 | 0.796 ± 0.021 | 0.516 ± 0.065 | 0.312 ± 0.043 | 0.106 ± 0.019 | 0.0857 ± 0.0063
2 | 93VU HEADNECK | 0.995 ± 0.04 | 1.04 ± 0.079 | 1.04 ± 0.06 | 1.09 ± 0.039 | 1.03 ± 0.11 | 1.14 ± 0.1 | 0.865 ± 0.066 | 0.976 ± 0.09 | 0.94 ± 0.015 | 0.995 ± 0.14 | 0.923 ± 0.075 | 0.979 ± 0.044 | 0.582 ± 0.14 | 0.351 ± 0.068 | 0.0697 ± 0.0051 | 0.047 ± 0.0046
3 | 143B BONE | 0.939 ± 0.1 | 1.08 ± 0.053 | 1.08 ± 0.035 | 1.05 ± 0.012 | 1.026 ± 0.0092 | 1.05 ± 0.024 | 0.519 ± 0.031 | 0.078 ± 0.021 | 0.995 ± 0.0057 | 0.992 ± 0.014 | 1.01 ± 0.039 | 0.966 ± 0.025 | 0.946 ± 0.011 | 0.896 ± 0.02 | 0.391 ± 0.016 | 0.267 ± 0.013
4 | A549 LUNG | 1.04 ± 0.03 | 1.02 ± 0.02 | 1.02 ± 0.024 | 0.994 ± 0.018 | 1.09 ± 0.039 | 1.06 ± 0.039 | 0.967 ± 0.02 | 0.601 ± 0.027 | 0.958 ± 0.049 | 0.939 ± 0.044 | 0.927 ± 0.026 | 0.936 ± 0.035 | 1.02 ± 0.032 | 0.886 ± 0.016 | 0.325 ± 0.024 | 0.158 ± 0.0036
5 | ASKA SYNOVIAL | 1.05 ± 0.055 | 1.13 ± 0.083 | 1.11 ± 0.087 | 1.06 ± 0.082 | 0.994 ± 0.061 | 0.852 ± 0.041 | 0.432 ± 0.032 | 0.438 ± 0.0075 | 0.923 ± 0.037 | 0.896 ± 0.064 | 0.878 ± 0.076 | 0.776 ± 0.054 | 0.462 ± 0.019 | 0.366 ± 0.025 | 0.187 ± 0.011 | 0.229 ± 0.026
6 | BT20 BREAST | 1.14 ± 0.095 | 1.15 ± 0.081 | 1.22 ± 0.083 | 1.14 ± 0.072 | 1.19 ± 0.093 | 1.31 ± 0.072 | 1.35 ± 0.079 | 1.21 ± 0.093 | 1.13 ± 0.1 | 1.11 ± 0.097 | 1.12 ± 0.019 | 1.09 ± 0.063 | 1 ± 0.048 | 0.72 ± 0.037 | 0.216 ± 0.004 | 0.141 ± 0.021
7 | BT549 BREAST | 1.12 ± 0.055 | 1.14 ± 0.12 | 1.05 ± 0.1 | 1.1 ± 0.044 | 1.1 ± 0.076 | 0.896 ± 0.095 | 0.141 ± 0.024 | 0.0517 ± 0.011 | 1.09 ± 0.18 | 1.02 ± 0.12 | 0.952 ± 0.095 | 0.939 ± 0.14 | 0.569 ± 0.085 | 0.381 ± 0.035 | 0.12 ± 0.013 | 0.0733 ± 0.0021
8 | C33A CERVIX | 0.856 ± 0.057 | 0.979 ± 0.11 | 0.903 ± 0.041 | 0.994 ± 0.094 | 0.97 ± 0.074 | 0.937 ± 0.14 | 0.524 ± 0.04 | 0.814 ± 0.054 | 0.778 ± 0.031 | 0.943 ± 0.09 | 0.789 ± 0.075 | 0.923 ± 0.073 | 0.614 ± 0.043 | 0.482 ± 0.012 | 0.156 ± 0.024 | 0.101 ± 0.018
9 | CADOES1 SOFT TISSUE | 0.789 ± 0.054 | 0.94 ± 0.018 | 0.867 ± 0.069 | 0.894 ± 0.031 | 0.814 ± 0.14 | 0.726 ± 0.056 | 0.294 ± 0.048 | 0.148 ± 0.015 | 0.956 ± 0.11 | 0.921 ± 0.061 | 0.911 ± 0.058 | 0.781 ± 0.045 | 0.633 ± 0.11 | 0.49 ± 0.025 | 0.193 ± 0.033 | 0.12 ± 0.0096
10 | CAL51 BREAST | 0.939 ± 0.051 | 0.961 ± 0.065 | 1.03 ± 0.025 | 0.922 ± 0.047 | 0.982 ± 0.062 | 0.855 ± 0.053 | 0.272 ± 0.049 | 0.123 ± 0.037 | 0.988 ± 0.062 | 0.901 ± 0.047 | 0.943 ± 0.064 | 0.91 ± 0.053 | 0.731 ± 0.023 | 0.442 ± 0.035 | 0.123 ± 0.0027 | 0.0447 ± 0.0022
11 | CAL72 BONE | 1.06 ± 0.1 | 1.08 ± 0.13 | 1.06 ± 0.099 | 1.03 ± 0.12 | 1.09 ± 0.1 | 0.981 ± 0.12 | 0.402 ± 0.076 | 0.137 ± 0.037 | 1.09 ± 0.055 | 1.06 ± 0.043 | 1.04 ± 0.043 | 1.05 ± 0.027 | 0.993 ± 0.038 | 0.805 ± 0.045 | 0.235 ± 0.014 | 0.214 ± 0.031
12 | CAL120 BREAST | 0.928 ± 0.063 | 0.922 ± 0.076 | 0.965 ± 0.057 | 0.934 ± 0.047 | 0.957 ± 0.069 | 0.917 ± 0.03 | 0.9 ± 0.07 | 0.745 ± 0.027 | 0.942 ± 0.024 | 0.876 ± 0.034 | 0.9035 ± 0.0069 | 0.867 ± 0.025 | 0.674 ± 0.035 | 0.441 ± 0.019 | 0.113 ± 0.025 | 0.0817 ± 0.0065
13 | CASKI CERVIX | 0.839 ± 0.052 | 0.909 ± 0.086 | 0.959 ± 0.032 | 0.922 ± 0.02 | 1.009 ± 0.01 | 0.9417 ± 0.0087 | 0.217 ± 0.011 | 0.12 ± 0.01 | 0.91 ± 0.034 | 0.901 ± 0.034 | 0.779 ± 0.05 | 0.922 ± 0.031 | 0.426 ± 0.022 | 0.147 ± 0.009 | 0.0347 ± 0.0047 | 0.338 ± 0.52
14 | CHLA90 AUTONOMIC GANGLIA | 0.977 ± 0.064 | 0.961 ± 0.058 | 0.913 ± 0.041 | 0.912 ± 0.034 | 0.94 ± 0.048 | 0.904 ± 0.075 | 0.46 ± 0.084 | 0.236 ± 0.048 | 1.05 ± 0.018 | 1 ± 0.061 | 0.951 ± 0.077 | 0.86 ± 0.04 | 0.753 ± 0.015 | 0.586 ± 0.045 | 0.206 ± 0.014 | 0.102 ± 0.0045
15 | CME SYNOVIAL | 1.21 ± 0.15 | 1.3 ± 0.16 | 1.28 ± 0.11 | 1.36 ± 0.18 | 1.32 ± 0.11 | 1.47 ± 0.17 | 1.14 ± 0.059 | 1.02 ± 0.15 | 1.01 ± 0.027 | 1.09 ± 0.2 | 1.04 ± 0.042 | 1.12 ± 0.045 | 0.743 ± 0.083 | 0.681 ± 0.051 | 0.252 ± 0.022 | 0.28 ± 0.019
16 | COLO320DM LARGE INTESTINE | 1.04 ± 0.17 | 1.07 ± 0.09 | 1.01 ± 0.069 | 1.13 ± 0.068 | 1.06 ± 0.066 | 0.896 ± 0.084 | 0.235 ± 0.027 | 0.154 ± 0.027 | 1.07 ± 0.051 | 1.08 ± 0.08 | 0.994 ± 0.05 | 0.906 ± 0.029 | 0.5533 ± 0.0034 | 0.383 ± 0.037 | 0.215 ± 0.0076 | 0.18 ± 0.0044
17 | DU4475 BREAST | 1 ± 0.29 | 0.794 ± 0.19 | 0.918 ± 0.04 | 0.753 ± 0.064 | 0.777 ± 0.2 | 1.18 ± 0.25 | 0.476 ± 0.076 | 0.337 ± 0.095 | 0.752 ± 0.16 | 0.767 ± 0.18 | 0.667 ± 0.25 | 0.639 ± 0.24 | 0.412 ± 0.074 | 0.301 ± 0.057 | 0.0443 ± 0.021 | 0.0323 ± 0.006
18 | H23 LUNG | 1 ± 0.058 | 0.99 ± 0.033 | 1 ± 0.064 | 0.989 ± 0.024 | 1.06 ± 0.082 | 1.02 ± 0.038 | 1 ± 0.092 | 0.919 ± 0.079 | 0.989 ± 0.016 | 0.98 ± 0.078 | 0.872 ± 0.063 | 0.731 ± 0.042 | 0.422 ± 0.018 | 0.265 ± 0.028 | 0.127 ± 0.0091 | 0.0933 ± 0.005
19 | HCC78 LUNG | 0.677 ± 0.09 | 0.908 ± 0.11 | 0.832 ± 0.17 | 0.984 ± 0.022 | 0.832 ± 0.15 | 0.919 ± 0.12 | 0.317 ± 0.1 | 0.131 ± 0.041 | 0.928 ± 0.31 | 0.845 ± 0.15 | 0.653 ± 0.27 | 0.588 ± 0.17 | 0.28 ± 0.048 | 0.104 ± 0.0093 | 0.022 ± 0.0044 | 0.0197 ± 0.0023
20 | HCC202 BREAST | 1.08 ± 0.39 | 1.03 ± 0.41 | 1.22 ± 0.065 | 1.01 ± 0.022 | 0.984 ± 0.052 | 0.886 ± 0.34 | 0.413 ± 0.071 | 0.376 ± 0.04 | 1.18 ± 0.25 | 1.37 ± 0.17 | 0.947 ± 0.27 | 0.94 ± 0.21 | 0.635 ± 0.18 | 0.295 ± 0.047 | 0.0793 ± 0.018 | 0.048 ± 0.013
